# Reference: EP2902035B1, “Cell-permeable peptide inhibitors of the JNK signal transduction pathway for use in the treatment of inflammatory eye diseases” (Xigen Inflammation Ltd., priority 2010, dated 2012)
# Legend:
# [1] = system: phospho-p44/42 MAPK (Erk1/2); experiment: Immunohistochemistry of p-Erk1/2 on ocular sections in EIU; type: in vivo, Lewis rats; details: 24h
# Experimental: (§1) A second set of experiment was designed to evaluate the anti-inflammatory effect of the JNK-inhibitor (poly-)peptide of SEQ ID NO: 11 at the cellular and tissue level as well as the biodistribution of this molecule 24 hours after administration. Rats were randomized into 11 experimental groups. 6 groups of rats with uveitis: untreated uveitic rats, rats injected intravenously with NaCl or the JNK-inhibitor (poly-)peptide of SEQ ID NO: 11 and rats injected intravitreously with the vehicle, the JNK-inhibitor (poly-)peptide of SEQ ID NO: 11 or dexamethasone. The 5 additional groups without uveitis were: untreated healthy rats, rats treated by NaCl IV or the JNK-inhibitor (poly-)peptide of SEQ ID NO: 11 IV and rats injected IVT with NaCl or the JNK-inhibitor (poly-)peptide of SEQ ID NO: 11. Three eyes from separate rats were collected per group and used for immunohistochemistry. Immunostaining of p-Erk1/2 was performed to evaluate the effect of the JNK-inhibitor (poly-)peptide of SEQ ID NO: 11 on the ERK pathway after IV or IVT administration. Sections were permeabilized as described above and incubated in blocking solution containing 0.1% Triton X-100 and 10% FCS (fetal calf serum) in PBS for 1 hour at room temperature. […]
# [2] = system: healthy eyes; parameters: species or system Lewis rats; details: rat, in vivo
# Experimental: For immunohistochemistry, eyeballs were collected and fixed for 1h at room temperature in phosphate buffered saline (PBS) containing 4% paraformaldehyde before being rinsed overnight in PBS. The next day, samples were embedded and frozen in optimal cutting-temperature (OCT) compound (Tissue-Tek®, Sakura Finetek, Zoeterwoude, Netherland) and stored at -80°C. Frozen antero-posterior sections of eyes (10 µm thick) were performed at the optic nerve level using a cryostat (Leica CM 3050S, Rueil-Malmaison, France) and mounted on super-frost slides for immunohistochemical analysis.
# as §1, with “11.” for “11. Three eyes from separate rats were collected per group and used for immunohistochemistry. Immunostaining of p-Erk1/2 was performed to evaluate the effect of the JNK-inhibitor (poly-)peptide of SEQ ID NO: 11 on the ERK pathway after IV or IVT administration. Sections were permeabilized as described above and incubated in blocking solution containing 0.1% Triton X-100 and 10% FCS (fetal calf serum) in PBS for 1 hour at room temperature.”
# [3] = system: iNOS mRNA; experiment: iNOS expression in ocular tissues by semi-quantitative PCR in EIU; type: in vivo, Lewis rats; details: retinas
# Experimental: Retinas and RPE/choroid/sclera complexes were also collected at 24 hours to analyze iNOS mRNA levels by RT-PCR and c-Jun phosphorylation state by Western-Blot. Tissues were collected only from eyes treated by IV (intravenous) injection of vehicle, IV injection of the JNK-inhibitor (poly-)peptide of SEQ ID NO: 11, IVT (intravitreal) injection of vehicle and IVT injection of the JNK-inhibitor (poly-)peptide of SEQ ID NO: 11 (n=2 eyes per condition collected from separate rats). Eyes were selected so that their EIU clinical score was representative of the mean of the experimental group they belong to, i.e 3 for eyes treated by IV and IVT injection of vehicle and 2 for eyes treated by IV or IVT injection of the JNK-inhibitor (poly-)peptide of SEQ ID NO: 11.
# Two eyes per group were used for this analysis. Immediately after dissection, retinas extracted from each eye were separately snap frozen and stored at -80°C until use. Total RNA was extracted from tissues (RNeasy minikit, Qiagen, Courtaboeuf, France) according to the manufacturer's instructions. […] PCR fragments (162 bp for GAPDH and 657 bp for iNOS) were analyzed by 2.5% agarose gel electrophoresis and visualized by ethidium bromide staining under UV light. The relative band intensity for iNOS was calculated in comparison to that for GAPDH after densitometry analysis (ImageJ software).
compound,measurement,setting,value
CC(C)C[C@@H](NC(=O)[C@@H](Cc1ccccc1)NC(=O)[C@H]1CCCN1C(=O)[C@@H](CCC(N)=O)NC(=O)[C@H](NC(=O)[C@H]1CCCN1C(=O)[C@@H](CCCNC(=N)N)NC(=O)[C@@H](CO)NC(=O)[C@@H](CCC(N)=O)NC(=O)[C@H](N)CC(=O)O)C(C)C)C(=O)N[C@H](CC(N)=O)C(=O)N[C@H](CC(C)C)C(=O)N[C@@H](C(=O)N[C@@H](C(=O)N1CCC[C@@H]1C(=O)N[C@H](CCCNC(=N)N)C(=O)N[C@H](CCCCN)C(=O)N1CCC[C@@H]1C(=O)N[C@H](CCCNC(=N)N)C(=O)N1CCC[C@@H]1C(=O)N1CCC[C@@H]1C(=O)N[C@H](CCCNC(=N)N)C(=O)N[C@H](CCCNC(=N)N)C(=O)N[C@H](CCCNC(=N)N)C(=O)N[C@H](CCC(N)=O)C(=O)N[C@H](CCCNC(=N)N)C(=O)N[C@H](CCCNC(=N)N)C(=O)N[C@H](CCCCN)C(=O)N[C@H](CCCCN)C(=O)N[C@H](CCCNC(=N)N)C(=O)NCC(=O)O)[C@H](C)O)[C@H](C)O [SEQ ID NO: 11],effect on p-Erk1/2 signal in the iris epithelium,[1]; iris epithelium,no effect
same,effect on p-Erk1/2 in retinal Müller glial (RMG) cells,"[1]; neuroretina, administered by either route (IV or IVT)",no effect
same,inflammatory cell infiltration in healthy eyes,[2],No inflammatory cell infiltration
same,Levels of iNOS mRNA (relative band intensity in comparison to GAPDH),[3]; 24 hours after IV,0.40 ± 0.11
same,Levels of iNOS mRNA (relative band intensity in comparison to GAPDH),[3]; 24 hours after IVT injection,0.27 ± 0.09
